Tests used:
human mTOR = biological target: T1, human mTOR (Homo sapiens, UniProt P42345); assay: mTOR Kinase Activity Inhibition Test; format: biochemical; conditions: His-tagged mTOR (1362C), biotinylated peptide substrate, ATP, 3 hours at room temperature, fluorescence resonance energy transfer 665 nm/620 nm; read-out: IC50 value of mTOR enzyme inhibitory activity
T1 construct: the portion corresponding to 1362-2549aa at the C terminus of human mTOR; made in house
Method in brief: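 Purified His-tagged human mTOR (1362–2549aa, from HEK293) was used with biotinylated peptide (8 μg/mL in enzyme solution) in HEPES pH 7.5 with 20 mM MnCl2. Compounds were diluted in 20 μM ATP solution, and the reaction ran 3 h at RT. Phospho-S6K(Thr389) HTRF was read as the 665/620 nm ratio, and IC50 came from % inhibition versus controls.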

WM-266-4 cells = assay: Cell Proliferation Inhibitory Test; format: cell-based; conditions: Homo sapiens, 72 h, cultured three days with test compound, MTT, read-out: 50% cell proliferation inhibitory activity (GI50 value)
Method in brief: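 Cells cultured overnight, then exposed to serially diluted compound for three days; cell amount read by MTT. GI50 solved from 100×[(T−T0)/(C−T0)]=50, with T0 the value at time of compound addition and C the untreated three-day control.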

T1 sequence (P42345 1362-2549): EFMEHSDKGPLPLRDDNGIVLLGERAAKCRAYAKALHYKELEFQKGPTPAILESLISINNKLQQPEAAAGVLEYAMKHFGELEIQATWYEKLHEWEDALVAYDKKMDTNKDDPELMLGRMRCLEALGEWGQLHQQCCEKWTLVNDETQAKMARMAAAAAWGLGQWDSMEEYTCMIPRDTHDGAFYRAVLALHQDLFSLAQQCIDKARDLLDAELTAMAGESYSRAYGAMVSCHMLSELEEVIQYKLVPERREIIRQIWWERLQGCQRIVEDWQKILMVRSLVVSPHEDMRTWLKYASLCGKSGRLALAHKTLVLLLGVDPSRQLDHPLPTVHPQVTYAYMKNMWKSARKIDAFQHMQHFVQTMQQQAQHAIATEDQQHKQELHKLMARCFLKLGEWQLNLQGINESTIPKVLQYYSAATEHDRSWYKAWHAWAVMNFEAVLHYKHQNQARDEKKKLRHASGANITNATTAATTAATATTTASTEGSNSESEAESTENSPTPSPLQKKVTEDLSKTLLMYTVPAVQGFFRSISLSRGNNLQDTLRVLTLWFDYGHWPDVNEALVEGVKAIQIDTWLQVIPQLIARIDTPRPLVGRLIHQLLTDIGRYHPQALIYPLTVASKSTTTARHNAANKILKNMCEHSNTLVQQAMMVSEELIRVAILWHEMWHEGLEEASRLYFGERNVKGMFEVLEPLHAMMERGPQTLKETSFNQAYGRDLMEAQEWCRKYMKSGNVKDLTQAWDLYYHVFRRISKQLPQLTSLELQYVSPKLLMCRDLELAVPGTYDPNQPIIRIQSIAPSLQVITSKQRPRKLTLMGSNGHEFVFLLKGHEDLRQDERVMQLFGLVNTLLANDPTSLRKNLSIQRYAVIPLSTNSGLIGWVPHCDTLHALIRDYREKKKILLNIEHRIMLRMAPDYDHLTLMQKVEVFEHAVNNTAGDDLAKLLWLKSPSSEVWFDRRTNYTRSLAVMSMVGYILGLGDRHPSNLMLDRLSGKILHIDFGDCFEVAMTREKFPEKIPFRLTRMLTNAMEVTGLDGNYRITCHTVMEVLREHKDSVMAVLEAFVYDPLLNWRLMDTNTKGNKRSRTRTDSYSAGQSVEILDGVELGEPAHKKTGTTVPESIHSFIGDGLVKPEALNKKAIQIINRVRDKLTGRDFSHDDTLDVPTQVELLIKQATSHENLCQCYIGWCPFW

Row | SMILES | IC50 (human mTOR) [nM] | GI50 (WM-266-4 cells) [nM]
1 | COC1(Cn2c(=O)[nH]c3ncc(-c4cnc5[nH]ccc5c4)cc32)CCOCC1 [Example 68, 1-[(4-Methoxytetrahydro-2H-pyran-4-yl)methyl]-6-(1H-pyrrolo[2,3-b]pyridin-5-yl)-1,3-dihydro-2H-imidazo[4,5-b]pyridin-2-one] | < 50 | < 3000
2 | O=c1[nH]c2ncc(-c3cnc4[nH]ccc4c3)cc2n1CC1CCS(=O)(=O)CC1 [Example 97, 1-[(1,1-Dioxidotetrahydro-2H-thiopyran-4-yl)methyl]-6-(1H-pyrrolo[2,3-b]pyridin-5-yl)-1,3-dihydro-2H-imidazo[4,5-b]pyridin-2-one] | < 50 | 3000 to 25000
3 | O=c1[nH]c2ncc(-c3cc4cc[nH]c4nn3)cc2n1CC1CCOCC1 [Example 76, 6-(7H-Pyrrolo[2,3-c]pyridazin-3-yl)-1-(tetrahydro-2H-pyran-4-ylmethyl)-1,3-dihydro-2H-imidazo[4,5-b]pyridin-2-one] | < 50 | 3000 to 25000
4 | O=c1[nH]c2ncc(-c3cnc4[nH]ccc4c3)cc2n1C[C@@H]1COC[C@H]1O (racemic) [Example 61] | < 50 | < 3000
5 | Cc1c[nH]c2ncc(-c3cnc4[nH]c(=O)n(C[C@H]5COCCO5)c4c3)cc12 [Example 43, 1-[(2S)-1,4-Dioxan-2-ylmethyl]-6-(3-methyl-1H-pyrrolo[2,3-b]pyridin-5-yl)-1,3-dihydro-imidazo[4,5-b]pyridin-2-one] | < 50 | < 3000
6 | O=c1[nH]c2ncc(-c3cnc4[nH]ccc4c3)cc2n1CC1CCOC1 (stereo not shown) [Example 107, 6-(1H-Pyrrolo[2,3-b]pyridin-5-yl)-1-(tetrahydrofuran-3-ylmethyl)-1,3-dihydro-2H-imidazo[4,5-b]pyridin-2-one] | < 50 | < 3000
7 | Cc1c[nH]c2ncc(-c3cnc4[nH]c(=O)n(CC5CCOCC5)c4c3)cc12 [Example 37, 6-(3-Methyl-1H-pyrrolo[2,3-b]pyridin-5-yl)-1-(tetrahydro-2H-pyran-4ylmethyl)-1,3-dihydro-2H-imidazo[4,5-b]pyridin-2-one] | < 50 | < 3000
8 | O=c1[nH]c2ncc(-c3cnc4[nH]ccc4c3)cc2n1C[C@H]1COCCO1 [Example 40, 1-[(2S)-1,4-Dioxan-2-ylmethyl]-6-(1H-pyrrolo[2,3-b]pyridin-5-yl)-1,3-dihydro-2H-imidazo[4,5-b]pyridin-2-one] | < 50 | < 3000
9 | O=c1[nH]c2ncc(-c3ccc4[nH]ccc4c3)cc2n1CC1CC1 [Example 1, 1-(Cyclopropylmethyl)-6-(1H-indol-5-yl)-1,3-dihydro-2H-imidazo[4,5-b]pyridin-2-one] | < 50 | < 3000
10 | CC(Cn1c(=O)[nH]c2ncc(-c3cnc4[nH]ccc4c3)cc21)C1CCOCC1 (stereo not shown) [Example 50, 6-(1H-Pyrrolo[2,3-b]pyridin-5-yl)-1-[2-(tetrahydro-2H-pyran-4-yl)propyl]-1,3-dihydro-2H-imidazo[4,5-b]pyridin-2-one] | < 50 | < 3000
11 | CS(=O)(=O)N1CCN(CCn2c(=O)[nH]c3ncc(-c4cnc5[nH]ccc5c4)cc32)CC1 [Example 60, 1-{2-[4-(Methylsulfonyl)piperazin-1-yl]ethyl}-6-(1H-pyrrolo[2,3-b]pyridin-5-yl)-1,3-dihydro-2H-imidazo[4,5-b]pyridin-2-one] | < 50 | < 3000
12 | O=c1[nH]c2ncc(-c3cnc4[nH]ccc4c3)cc2n1CC1COCCN1 (stereo not shown) [Example 108, 1-(Morpholin-3-ylmethyl)-6-(1H-pyrrolo[2,3-b]pyridin-5-yl)-1,3-dihydro-2H-imidazo[4,5-b]pyridin-2-one] | < 50 | < 3000
13 | O=c1[nH]c2ncc(-c3cc4cc[nH]c4nc3Cl)cc2n1CC1CCOCC1 [Example 78, 6-(6-Chloro-1H-pyrrolo[2,3-b]pyridin-5-yl)-1-(tetrahydro-2H-pyran-4-ylmethyl)-1,3-dihydro-2H-imidazo[4,5-b]pyridin-2-one] | < 50 | < 3000
14 | Cc1nc2[nH]c(=O)n(C[C@H]3COCCO3)c2cc1-c1cnc2[nH]ccc2c1 [Example 44, 1-[(2S)-1,4-Dioxan-2-ylmethyl]-5-methyl-6-(1H-pyrrolo[2,3-b]pyridin-5-yl)-1,3-dihydro-imidazo[4,5-b]pyridin-2-one] | < 50 | < 3000
15 | O=c1[nH]c2ncc(-c3cnc4[nH]cc(F)c4c3)cc2n1CC1CCOCC1 [Example 96, 6-(3-Fluoro-1H-pyrrolo[2,3-b]pyridin-5-yl)-1-(tetrahydro-2H-pyran-4-ylmethyl)-1,3-dihydro-2H-imidazo[4,5-b]pyridin-2-one] | < 50 | < 3000
16 | O=c1[nH]c2ncc(-c3cnc4[nH]ccc4c3)cc2n1C[C@H]1CC[C@H](O)CC1 [Example 101, 1-[(trans-4-Hydroxycyclohexyl)methyl]-6-(1H-pyrrolo[2,3-b]pyridin-5-yl)-1,3-dihydro-2H-imidazo[4,5-b]pyridin-2-one] | < 50 | < 3000
17 | Cc1[nH]c2ncc(-c3cnc4[nH]c(=O)n(CC5CCOCC5)c4c3)cc2c1C [Example 87, 6-(2,3-Dimethyl-1H-pyrrolo[2,3-b]pyridin-5-yl)-1-(tetrahydro-2H-pyran-4-ylmethyl)-1,3-dihydro-2H-imidazo[4,5-b]pyridin-2-one] | 100 to 5000 | 3000 to 25000
18 | O=c1[nH]c2ncc(-c3cnc4[nH]ccc4c3)cc2n1C1CCOCC1 [Example 19, 6-(1H-Pyrrolo[2,3-b]pyridin-5-yl)-1-(tetrahydro-2H-pyran-4-yl)-1,3-dihydro-2H-imidazo[4,5-b]pyridin-2-one] | < 50 | < 3000
19 | O=C(O)c1c[nH]c2ncc(-c3cnc4[nH]c(=O)n(CC5CCOCC5)c4c3)cc12 [Example 93, 5-[2-oxo-1-(tetrahydro-2H-pyran-4-ylmethyl)-2,3-dihydro-1H-imidazo[4,5-b]pyridin-6-yl]-1H-pyrrolo[2,3-b]pyridine-3-carboxylic acid] | < 50 | 3000 to 25000
20 | CO[C@H]1CC[C@@H](Cn2c(=O)[nH]c3ncc(-c4cnc5[nH]ccc5c4)cc32)CC1 [Example 99, 1-[(cis-4-Methoxycyclohexyl)methyl]-6-(1H-pyrrolo[2,3-b]pyridin-5-yl)-1,3-dihydro-2H-imidazo[4,5-b]pyridin-2-one] | < 50 | < 3000

The next lines start with results.

Row | IC50 (human mTOR) [nM] | SMILES | GI50 (WM-266-4 cells) [nM]
21 | < 50 | CCc1c(-c2cnc3[nH]c(=O)n(C[C@H]4COCCO4)c3c2)cnc2[nH]ccc12 [Example 123, 1-[(2S)-1,4-Dioxan-2-ylmethyl]-6-(4-ethyl-1H-pyrrolo[2,3-b]pyridin-5-yl)-1,3-dihydro-2H-imidazo[4,5-b]pyridin-2-one] | < 3000
22 | < 50 | Cc1nc2[nH]ccc2cc1-c1cnc2[nH]c(=O)n(C[C@H]3COCCO3)c2c1 [Example 129, 1-[(2S)-1,4-Dioxan-2-ylmethyl]-6-(6-methyl-1H-pyrrolo[2,3-b]pyridin-5-yl)-1,3-dihydro-2H-imidazo[4,5-b]pyridin-2-one] | < 3000
23 | < 50 | CO[C@H]1CCO[C@@H](Cn2c(=O)[nH]c3ncc(-c4cnc5[nH]ccc5c4)cc32)C1 (racemic) [Example 114, 2,6-Anhydro-1,3,5-trideoxy-4-O-methyl-1-[2-oxo-6-(1H-pyrrolo[2,3-b]pyridin-5-yl)-2,3-dihydro-1H-imidazo[4,5-b]pyridin-1-yl]-DL-threo-hexitol] | < 3000
24 | 100 to 5000 | CN(C)c1c(-c2cnc3[nH]c(=O)n(C[C@H]4COCCO4)c3c2)cnc2[nH]ccc12 [Example 131, 6-[4-(Dimethylamino)-1H-pyrrolo[2,3-b]pyridin-5-yl]-1-[(2S)-1,4-dioxan-2-ylmethyl]-1,3-dihydro-2H-imidazo[4,5-b]pyridin-2-one] | 3000 to 25000
25 | < 50 | O=C1COC(Cn2c(=O)[nH]c3ncc(-c4cnc5[nH]ccc5c4)cc32)CN1 (stereo not shown) [Example 110, 1-[(5-Oxomorpholin-2-yl)methyl]-6-(1H-pyrrolo[2,3-b]pyridin-5-yl)-1,3-dihydro-2H-imidazo[4,5-b]pyridin-2-one] | 3000 to 25000
26 | < 50 | CO[C@H]1CCO[C@@H](Cn2c(=O)[nH]c3ncc(-c4cnc5[nH]ccc5c4C)cc32)C1 [Example 139, 2,6-Anhydro-1,3,5-trideoxy-4-O-methyl-1-[6-(4-methyl-1H-pyrrolo[2,3-b]pyridin-5-yl)-2-oxo-2,3-dihydro-1H-imidazo[4,5-b]pyridin-1-yl]-L-threo-hexitol] | < 3000
27 | 100 to 5000 | CN(CCO)c1c(-c2cnc3[nH]c(=O)n(C[C@H]4COCCO4)c3c2)cnc2[nH]ccc12 [Example 132, 1-[(2S)-1,4-Dioxan-2-ylmethyl]-6-{4-[(2-hydroxyethyl)(methyl)amino]-1H-pyrrolo[2,3-b]pyridin-5-yl}-1,3-dihydro-2H-imidazo[4,5-b]pyridin-2-one] | 3000 to 25000
28 | < 50 | O=c1[nH]c2ncc(-c3cnc4c(c3)CCN4)cc2n1C[C@H]1COCCO1 [Example 121, 6-(2,3-Dihydro-1H-pyrrolo[2,3-b]pyridin-5-yl)-1-[(2S)-1,4-dioxan-2-ylmethyl]-1,3-dihydro-2H-imidazo[4,5-b]pyridin-2-one] | < 3000
29 | < 50 | Nc1c(-c2cnc3[nH]c(=O)n(C[C@H]4COCCO4)c3c2)cnc2[nH]ccc12 [Example 130, 6-(4-Amino-1H-pyrrolo[2,3-b]pyridin-5-yl)-1-[(2S)-1,4-dioxan-2-ylmethyl]-1,3-dihydro-2H-imidazo[4,5-b]pyridin-2-one] | 3000 to 25000
